This passage reports pest or weed control and YFM rating results from patent publication US10219516B2, “Molecules having pesticidal utility, and intermediates, compositions, and processes, related thereto” (priority 2015, dated 2019).

What all share (format): in vivo
The test system of assay [1] is Beet Armyworm (Spodoptera exigua, LAPHEG). The assay can be described thus: Bioassay on Beet Armyworm (BAW), 128-well diet tray assay. Particulars: Beet Armyworm, 128-well diet tray assay, read-out: BAW rating. In outline:
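In a 128-well format, eight wells per compound received a surface dose of 50 μg/cm^2 on artificial diet. After drying, each well got one to five second instar larvae, held at 25° C. with 14:10 photoperiod. Mortality percentages after five to seven days were averaged.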

For assay [2], the system named is Cabbage Looper (Trichoplusia ni, TRIPNI). The assay can be described thus: Bioassay on Cabbage Looper (CL), 128-well diet tray assay. The settings on record: Trichoplusia ni; Cabbage Looper, 128-well diet tray assay; read-out: CL rating. In outline:
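Percent mortality, averaged across eight replicate wells, was scored after five to seven days at 25° C. under a 14:10 light-dark cycle. Each well held one to five second instar larvae on artificial diet treated at 50 μg/cm^2 with compound from 90:10 acetone-water, allowed to dry before infestation.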

Assay [3] concerns Yellow Fever Mosquito (Aedes aegypti, AEDSAE). The assay can be described thus: Bioassay on Yellow Fever Mosquito (YFM), 96-well plate larval assay. The settings on record: Yellow Fever Mosquito, 96-well plate larval assay. A digest of the protocol:
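Compound stocks at 4000 ppm in DMSO were diluted with 90:10 water/acetone, and 15 μL aliquots were dispensed into six replicate plates. About 1-day-old larvae in liver-powder water were added per well. Plates were covered and held at room temperature for 3 days before each well was scored for mortality.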

As to `CN1CCc2cc(NC(=O)c3cc(NC(=O)[C@H]4[C@H](c5cc(Cl)cc(Cl)c5)C4(Cl)Cl)ccc3Cl)ccc21` (relative stereo) [F473, 2-Chloro-5-(trans)-(2,2-dichloro-3-(3,5-dichlorophenyl)cyclopropane-1-carboxamido)-N-(1-methylindolin-5-yl)benzamide], the pest or weed control at 50 µg/cm2 in assay [1] and in assay [2] was 50 to 100% each time. In addition, in assay [3], the YFM rating result is on record as “A (80-100)”.
For the molecule `O=C(Nc1cc2cc[nH]c2cn1)c1cc(NC(=O)[C@H]2[C@H](c3cc(Cl)cc(Cl)c3)C2(Cl)Cl)ccc1Cl` (relative stereo) [F474, 2-Chloro-5-(trans)-(2,2-dichloro-3-(3,5-dichlorophenyl)cyclopropane-1-carboxamido)-N-(1H-pyrrolo[2,3-c]pyridin-5-yl)benzamide], the pest or weed control at 50 µg/cm2 in assay [1] and in assay [2] was 50 to 100% throughout. Moreover, in assay [3], the YFM rating result is listed as “A (80-100)”.
As to `Cn1ncc2cc(NC(=O)c3cc(NC(=O)[C@H]4[C@H](c5cc(Cl)cc(Cl)c5)C4(Cl)Cl)ccc3Cl)cnc21` (relative stereo) [F476, 2-Chloro-5-(trans)-(2,2-dichloro-3-(3,5-dichlorophenyl)cyclopropane-1-carboxamido)-N-(1-methyl-1H-pyrazolo[3,4-b]pyridin-5-yl)benzamide], the pest or weed control at 50 µg/cm2 in assay [1] and in assay [2] was 50 to 100% throughout. Moreover, in assay [3], the YFM rating result is “A (80-100)”.
Take `Cc1ccc2c(N)nn(C(=O)c3cc(NC(=O)[C@H]4[C@H](c5cc(Cl)cc(Cl)c5)C4(Cl)Cl)ccc3Cl)c2c1` (relative stereo) [F477, (trans)-N-(3-(3-Amino-6-methyl-1H-indazole-1-carbonyl)-4-chlorophenyl)-2,2-dichloro-3-(3,5-dichlorophenyl)cyclopropane-1-carboxamide]: the pest or weed control at 50 µg/cm2 in assay [1] and in assay [2] was 50 to 100% each time. Further, the YFM rating result in assay [3] is reported as “A (80-100)”.
Consider `Cc1ccc2c(NC(=O)c3cc(NC(=O)[C@H]4[C@H](c5cc(Cl)cc(Cl)c5)C4(Cl)Cl)ccc3Cl)n[nH]c2c1` (relative stereo) [F478, 2-Chloro-5-(trans)-(2,2-dichloro-3-(3,5-dichlorophenyl)cyclopropane-1-carboxamido)-N-(6-methyl-1H-indazol-3-yl)benzamide], for which the pest or weed control at 50 µg/cm2 in assay [1] and in assay [2] was 50 to 100% in each case. In addition, in assay [3], the YFM rating result is recorded as “A (80-100)”.
`Nc1ccc2c(c1)CN(C(=O)c1cc(NC(=O)[C@H]3[C@H](c4cc(Cl)cc(Cl)c4)C3(Cl)Cl)ccc1Cl)C2` (relative stereo) [F479, (trans)-N-(3-(5-Aminoisoindoline-2-carbonyl)-4-chlorophenyl)-2,2-dichloro-3-(3,5-dichlorophenyl)cyclopropane-1-carboxamide]: the pest or weed control at 50 µg/cm2 in assay [1] and in assay [2] was 50 to 100% each time. In addition, the YFM rating result in assay [3] is given as “A (80-100)”.
For the molecule `Cc1cc(N2C(=O)C=CC2=O)ccc1NC(=O)c1cc(NC(=O)[C@H]2[C@H](c3cc(Cl)cc(Cl)c3)C2(Cl)Cl)ccc1Cl` (relative stereo) [F480, 2-chloro-5-(trans-2,2-dichloro-3-(3,5-dichlorophenyl)cyclopropane-1-carboxamido)-N-(4-(2,5-dioxo-2,5-dihydro-1H-pyrrol-1-yl)-2-methylphenyl)benzamide], the pest or weed control at 50 µg/cm2 in assay [1] and in assay [2] was 50 to 100% each time. Moreover, the YFM rating entry in assay [3] is on record as “A (80-100)”.
On to `O=C(Nc1ccc2scnc2c1)c1cc(NC(=O)[C@H]2[C@H](c3cc(Cl)cc(Cl)c3)C2(Cl)Cl)ccc1Cl` (relative stereo) [F482, trans-N-(Benzo[d]thiazol-5-yl)-2-chloro-5-(2,2-dichloro-3-(3,5-dichlorophenyl)cyclopropane-1-carboxamido)benzamide], for which the pest or weed control at 50 µg/cm2 in assay [1] and in assay [2] was 50 to 100% in each case. Moreover, the YFM rating result in assay [3] is listed as “A (80-100)”.
For the molecule `CCOC(=O)c1cc2cc(NC(=O)c3cc(NC(=O)[C@H]4[C@H](c5cc(Cl)cc(Cl)c5)C4(Cl)Cl)ccc3Cl)ccc2[nH]1` (relative stereo) [F483, Ethyl 5-(2-chloro-5-(trans)(2,2-dichloro-3-(3,5-dichlorophenyl)cyclopropane-1-carboxamido)benzamido)-1H-indole-2-carboxylate], the pest or weed control at 50 µg/cm2 in assay [1] and in assay [2] was 50 to 100% in each case. Besides, in assay [3], the YFM rating entry was “A (80-100)”.
As for `Cc1c(NC(=O)c2cc(NC(=O)[C@H]3[C@H](c4cc(Cl)cc(Cl)c4)C3(Cl)Cl)ccc2Cl)ccc2[nH]ccc12` (relative stereo) [F485, 2-Chloro-5-(trans)-(2,2-dichloro-3-(3,5-dichlorophenyl)cyclopropane-1-carboxamido)-N-(4-methyl-1H-indol-5-yl)benzamide], the pest or weed control at 50 µg/cm2 in assay [1] and in assay [2] was 50 to 100% in each case. In assay [3], the YFM rating entry is given as “A (80-100)”.
With `CC(C)(C)c1cc2cc(NC(=O)c3cc(NC(=O)[C@H]4[C@H](c5cc(Cl)cc(Cl)c5)C4(Cl)Cl)ccc3Cl)ccc2[nH]1` (relative stereo) [F486, N-(2-(tert-Butyl)-1H-indol-5-yl)-2-chloro-5-(trans)-(2,2-dichloro-3-(3,5-dichlorophenyl)cyclopropane-1-carboxamido)benzamide], the pest or weed control at 50 µg/cm2 in assay [1] and in assay [2] was 50 to 100% throughout. The YFM rating entry in assay [3] is recorded as “A (80-100)”.
Turning to `CCn1ccc2cc(NC(=O)c3cc(NC(=O)[C@H]4[C@H](c5cc(Cl)cc(Cl)c5)C4(Cl)Cl)ccc3Cl)ccc21` (relative stereo) [F488, 2-Chloro-5-(trans)-(2,2-dichloro-3-(3,5-dichlorophenyl)cyclopropane-1-carboxamido)-N-(1-ethyl-1H-indol-5-yl)benzamide], the pest or weed control at 50 µg/cm2 in assay [1] and in assay [2] was 50 to 100% in each case. The YFM rating entry in assay [3] was “A (80-100)”.
Turning to `CN1C(=O)CCc2cc(NC(=O)c3cc(NC(=O)[C@H]4[C@H](c5cc(Cl)cc(Cl)c5)C4(Cl)Cl)ccc3Cl)ccc21` (relative stereo) [F490, 2-chloro-5-(trans)-(2,2-dichloro-3-(3,5-dichlorophenyl)cyclopropane-1-carboxamido)-N-(1-methyl-2-oxo-1,2,3,4-tetrahydroquinolin-6-yl)benzamide], the pest or weed control at 50 µg/cm2 in assay [1] and in assay [2] was 50 to 100% each time. Also, the YFM rating entry in assay [3] is listed as “A (80-100)”.
Consider `CN1CCCc2cc(NC(=O)c3cc(NC(=O)[C@H]4[C@H](c5cc(Cl)cc(Cl)c5)C4(Cl)Cl)ccc3Cl)ccc21` (relative stereo) [F491, 2-Chloro-5-(trans)-(2,2-dichloro-3-(3,5-dichlorophenyl)cyclopropane-1-carboxamido)-N-(1-methyl-1,2,3,4-tetrahydroquinolin-6-yl)benzamide], for which the pest or weed control at 50 µg/cm2 in assay [1] and in assay [2] was 50 to 100% throughout. Also, the YFM rating result in assay [3] is listed as “A (80-100)”.
Consider `O=C(Nc1ccc2c(c1)CCCN2)c1cc(NC(=O)[C@H]2[C@H](c3cc(Cl)cc(Cl)c3)C2(Cl)Cl)ccc1Cl` (relative stereo) [F492, 2-Chloro-5-(trans)-(2,2-dichloro-3-(3,5-dichlorophenyl)cyclopropane-1-carboxamido)-N-(1,2,3,4-tetrahydroquinolin-6-yl)benzamide], for which the pest or weed control at 50 µg/cm2 in assay [1] and in assay [2] was 50 to 100% throughout. For the same molecule, the YFM rating result in assay [3] is on record as “A (80-100)”.
Consider `N#Cc1ccc2c(N)nn(C(=O)c3cc(NC(=O)[C@H]4[C@H](c5cc(Cl)cc(Cl)c5)C4(Cl)Cl)ccc3Cl)c2c1` (relative stereo) [F493, trans-N-(3-(3-Amino-6-cyano-1H-indazole-1-carbonyl)-4-chlorophenyl)-2,2-dichloro-3-(3,5-dichlorophenyl)cyclopropane-1-carboxamide], for which the pest or weed control at 50 µg/cm2 in assay [1] and in assay [2] was 50 to 100% in each case. For the same molecule, the YFM rating result in assay [3] is given as “A (80-100)”.
Regarding `CC(=O)Nc1cccc(NC(=O)c2cc(NC(=O)[C@H]3[C@H](c4cc(Cl)cc(Cl)c4)C3(Cl)Cl)ccc2Cl)n1` (relative stereo) [F494, N-(6-Acetamidopyridin-2-yl)-2-chloro-5-(trans-2,2-dichloro-3-(3,5-dichlorophenyl)cyclopropane-1-carboxamido)benzamide], the pest or weed control at 50 µg/cm2 in assay [1] and in assay [2] was 50 to 100% each time. The YFM rating entry in assay [3] was “A (80-100)”.
Consider `O=C(Nc1ccc2c(ccn2CCF)c1)c1cc(NC(=O)[C@H]2[C@H](c3cc(Cl)cc(Cl)c3)C2(Cl)Cl)ccc1Cl` (relative stereo) [F496, 2-Chloro-5-(trans)-(2,2-dichloro-3-(3,5-dichlorophenyl)cyclopropane-1-carboxamido)-N-(1-(2-fluoroethyl)-1H-indol-5-yl)benzamide], for which the pest or weed control at 50 µg/cm2 in assay [1] and in assay [2] was 50 to 100% throughout. Also, the YFM rating entry in assay [3] is given as “A (80-100)”.
For `O=C(Nc1ccc2[nH]c(-c3ccccc3)cc2c1)c1cc(NC(=O)[C@H]2[C@H](c3cc(Cl)cc(Cl)c3)C2(Cl)Cl)ccc1Cl` (relative stereo) [F497, 2-Chloro-5-(trans)-(2,2-dichloro-3-(3,5-dichlorophenyl)cyclopropane-1-carboxamido)-N-(2-phenyl-1H-indol-5-yl)benzamide], the pest or weed control at 50 µg/cm2 in assay [1] and in assay [2] was 50 to 100% each time. Moreover, the YFM rating entry in assay [3] is “A (80-100)”.
